Measurements as given in patent publication US9926297B2, “Bicyclic AZA compounds as muscarinic M1 receptor and/or M4 receptor agonists” (Heptares Therapeutics Limited, priority 2014, dated 2018).

How the values were obtained:
[1] = biological target: T1, human muscarinic M4 receptor (Homo sapiens, UniProt P08173); assay: Alphascreen Surefire phospho-ERK1/2 functional assay, M4; type: cell-based; conditions: for EC50 / % Emax cf. ACh, M4: CHO cells stably expressing human M4; for EC50: phospho-ERK1/2, * = variable results, read-out: pEC50 M4 (converted); for % Emax cf. ACh, M4 / Emax: relative to ACh; for Emax: CHO, read-out: % Emax cf. ACh, M4, CHO cells stably expressing human M4; for selectivity for the M4 receptor relative to the M1 receptor: functional assay of Example A
T1 construct: expressed in transfected cells
T1 sequence (P08173 1-479): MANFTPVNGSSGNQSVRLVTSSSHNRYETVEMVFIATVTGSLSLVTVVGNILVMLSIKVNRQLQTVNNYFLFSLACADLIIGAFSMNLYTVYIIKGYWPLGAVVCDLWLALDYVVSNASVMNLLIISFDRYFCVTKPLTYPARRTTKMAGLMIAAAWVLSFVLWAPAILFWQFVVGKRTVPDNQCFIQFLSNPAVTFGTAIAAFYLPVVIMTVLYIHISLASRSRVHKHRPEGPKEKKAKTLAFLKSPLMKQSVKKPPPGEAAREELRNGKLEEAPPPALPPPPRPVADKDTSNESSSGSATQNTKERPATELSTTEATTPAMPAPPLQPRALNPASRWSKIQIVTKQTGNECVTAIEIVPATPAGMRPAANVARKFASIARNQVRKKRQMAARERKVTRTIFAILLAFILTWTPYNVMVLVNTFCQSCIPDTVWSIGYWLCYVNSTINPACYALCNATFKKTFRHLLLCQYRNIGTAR

[2] = biological target: T2, human muscarinic M1 receptor (Homo sapiens, UniProt P11229); assay: Alphascreen Surefire phospho-ERK1/2 functional assay, M1; type: cell-based; conditions: for EC50 / % Emax cf. ACh, M1: CHO cells stably expressing human M1; for EC50: phospho-ERK1/2, * = variable results, read-out: pEC50 M1 (converted); for % Emax cf. ACh, M1 / Emax: relative to ACh; for Emax: CHO, read-out: % Emax cf. ACh, M1, CHO cells stably expressing human M1
T2 sequence (P11229 1-460): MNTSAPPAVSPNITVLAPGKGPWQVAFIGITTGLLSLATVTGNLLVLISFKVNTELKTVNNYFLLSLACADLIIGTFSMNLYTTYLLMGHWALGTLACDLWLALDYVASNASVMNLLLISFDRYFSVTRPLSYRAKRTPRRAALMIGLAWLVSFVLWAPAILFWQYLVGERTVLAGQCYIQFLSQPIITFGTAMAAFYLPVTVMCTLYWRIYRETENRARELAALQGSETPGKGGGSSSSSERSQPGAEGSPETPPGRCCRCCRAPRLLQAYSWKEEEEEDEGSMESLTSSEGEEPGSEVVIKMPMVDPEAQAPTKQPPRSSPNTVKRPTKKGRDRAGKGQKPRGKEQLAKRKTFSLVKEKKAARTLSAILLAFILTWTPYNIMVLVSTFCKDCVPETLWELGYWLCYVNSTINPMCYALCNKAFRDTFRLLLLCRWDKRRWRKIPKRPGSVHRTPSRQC

SMILES: CCOC(=O)N1CCC2(CC(N3CCC(C4CCCNC4=O)CC3)C2)C1 (single isomer, unassigned) [4-1 Isomer 2, ethyl 2-(2-oxo-3,4′-bipiperidin-1′-yl)-6-azaspiro[3.4]octane-6-carboxylate]
- EC50 [1]: 69.2 nM
- % Emax cf. ACh, M4 [1]: 47%
- EC50 [2]: > 20000 nM
- % Emax cf. ACh, M1 [2]: 10%

SMILES: CCOC(=O)N1CCC2(CC(N3CCC(N4C[C@H](F)C[C@@H]4CO)CC3)C2)C1 (single isomer, unassigned) [2-136 Isomer 2]
- EC50 [1]: 12.6 nM
- EC50 [2]: 631 nM

SMILES: CCOC(=O)N1CCC2(CC(N3CCC(c4nc(C(F)(F)F)c[nH]4)CC3)C2)C1 (single isomer, unassigned) [1-3 Isomer 2, ethyl 2-(4-(4-(trifluoromethyl)-1H-imidazol-2-yl)piperidin-1-yl)-6-azaspiro[3.4]octane-6-carboxylate]
- EC50 [1]: 200 nM
- Emax [1]: 41%
- EC50 [2]: 501 nM
- Emax [2]: 30%

SMILES: CCOC(=O)N1CCC2(CC(N3CCC(N4CCCC4c4nnnn4C)CC3)C2)C1 (single isomer, unassigned) [2-130 Isomer 1, ethyl 2-{4-[2-(1-methyl-1H-tetrazol-5-yl)pyrrolidin-1-yl]piperidin-1-yl}-6-azaspiro[3.4]octane-6-carboxylate]
- EC50 [1]: 12.6 nM
- % Emax cf. ACh, M4 [1]: 20%
- EC50 [2]: 316 nM
- % Emax cf. ACh, M1 [2]: 42%

SMILES: CCOC(=O)N1CCC2(CC(N3CCC(N4C(=O)OC[C@@H]4C)CC3)C2)C1 (single isomer, unassigned) [2-121 Isomer 2]
- EC50 [1]: 200 nM
- Emax [1]: 60%
- EC50 [2]: 1000 nM
- Emax [2]: 31%

SMILES: CCOC(=O)N1CCC2(CC(N3CCC([C@@H]4CCCN4c4nncs4)CC3)C2)C1 (single isomer, unassigned) [2-83 Isomer 2]
- EC50 [1]: 10 nM
- Emax [1]: 100%
- EC50 [2]: 3980 nM
- Emax [2]: 55%

SMILES: CCOC(=O)N1CCC2(CC(N3CCC(N4CCN(C)C4=O)CC3)C2)C1 (single isomer, unassigned) [2-125 Isomer 2, ethyl 2-[4-(3-methyl-2-oxoimidazolidin-1-yl)piperidin-1-yl]-6-azaspiro[3.4]octane-6-carboxylate]
- EC50 [1]: 316 nM
- Emax [1]: 81%
- EC50 [2]: 3980 nM
- Emax [2]: 32%

SMILES: CCOC(=O)N1CCC2(CC(N3CCC(n4cnnn4)CC3)C2)C1 (single isomer, unassigned) [1-62 Isomer 2, ethyl 2-[4-(1H-tetrazol-1-yl)piperidin-1-yl]-6-azaspiro[3.4]octane-6-carboxylate]
- EC50 [1]: > 20000 nM
- Emax [1]: 10%
- EC50 [2]: 1260 nM
- Emax [2]: 73%

SMILES: CCOC(=O)N1CCC2(CC(N3CCC(N4CCCC4c4nnn[nH]4)CC3)C2)C1 (single isomer, unassigned) [2-128 Isomer 2, ethyl 2-{4-[2-(1H-tetrazol-5-yl)pyrrolidin-1-yl]piperidin-1-yl}-6-azaspiro[3.4]octane-6-carboxylate]
- EC50 [1]: 1580 nM
- Emax [1]: 104%
- EC50 [2]: 10000 nM
- Emax [2]: 89%

SMILES: CCOC(=O)N1CCC2(CC(N3CCC(N4CCCC[C@@H]4C(=O)NC)CC3)C2)C1 (single isomer, unassigned) [4-16 Isomer 2]
- EC50 [1]: 158 nM
- Emax [1]: 105%
- EC50 [2]: 1000 nM
- Emax [2]: 94%

SMILES: CCOC(=O)N1CCC2(CC(N3CCC([C@@H]4CCCN4C(=O)N4Cc5cccnc5C4)CC3)C2)C1 (single isomer, unassigned) [2-133 Isomer 2]
- EC50 [1]: 0.631 nM
- % Emax cf. ACh, M4 [1]: 118%
- EC50 [2]: 79.4 nM
- % Emax cf. ACh, M1 [2]: 69%

SMILES: CCOC(=O)N1CCC2(CC(N3CCC(N4CC(F)(F)C[C@H]4C(=O)N(C)C)CC3)C2)C1 (single isomer, unassigned) [2-94 Isomer 2]
- EC50 [1]: 6760 nM
- Emax [1]: 80%
- EC50 [2]: > 20000 nM
- Emax [2]: 7%

SMILES: CCOC(=O)N1CCC2(CC(N3CCC(c4nnnn4C)CC3)C2)C1 (single isomer, unassigned) [1-64 Isomer 2, ethyl 2-[4-(1-methyl-1H-tetrazol-5-yl)piperidin-1-yl]-6-azaspiro[3.4]octane-6-carboxylate]
- EC50 [1]: 316 nM
- Emax [1]: 78%
- EC50 [2]: 5010 nM
- Emax [2]: 40%

SMILES: CCOC(=O)N1CCC2(CC(N3CCC(c4nnn(CC)n4)CC3)C2)C1 (single isomer, unassigned) [1-66 Isomer 2, ethyl 2-[4-(2-ethyl-2H-tetrazol-5-yl)piperidin-1-yl]-6-azaspiro[3.4]octane-6-carboxylate]
- EC50 [1]: 251 nM
- Emax [1]: 32%
- EC50 [2]: > 20000 nM
- Emax [2]: 14%

SMILES: CCOC(=O)N1CCC2(CC(N3CCC(C4CCCN4C)CC3)C2)C1 (single isomer, unassigned) [2-22 Isomer 2, ethyl 2-[4-(1-methylpyrrolidin-2-yl)piperidin-1-yl]-6-azaspiro[3.4]octane-6-carboxylate]
- EC50 [1]: 316 nM
- Emax [1]: 31%
- EC50 [2]: > 20000 nM
- Emax [2]: 7%

SMILES: CCOC(=O)N1CCC2(CC(N3CCC(c4cc(N)n[nH]4)CC3)C2)C1 (single isomer, unassigned) [1-19 Isomer 2, ethyl 2-[4-(3-amino-1H-pyrazol-5-yl)piperidin-1-yl]-6-azaspiro[3.4]octane-6-carboxylate]
- EC50 [1]: 7940 nM
- Emax [1]: 48%
- EC50 [2]: 794 nM
- Emax [2]: 83%

SMILES: [2H]C([2H])([2H])C([2H])([2H])OC(=O)N1CCC2(CC(N3CCC(n4cccn4)CC3)C2)C1 (single isomer, unassigned) [1-70 Isomer 2, (^2H5)ethyl 2-[4-(1H-pyrazol-1-yl)piperidin-1-yl]-6-azaspiro[3.4]octane-6-carboxylate]
- EC50 [1]: 5.01 nM
- Emax [1]: 101%
- EC50 [2]: 79.4 nM
- Emax [2]: 92%

SMILES: COC(=O)N1CCC2(CC(N3CCC(c4nc(C)cn4C)CC3)C2)C1 (single isomer, unassigned) [1-11 Isomer 2, methyl 2-[4-(1,4-dimethyl-1H-imidazol-2-yl)piperidin-1-yl]-6-azaspiro[3.4]octane-6-carboxylate]
- EC50 [1]: 251 nM
- Emax [1]: 85%
- EC50 [2]: 1580 nM
- Emax [2]: 98%

SMILES: CCOC(=O)N1CCC2(CC(N3CCC([C@@H]4CCCN4C(=O)NC)CC3)C2)C1 (stereo partly drawn) [Example 2-17, ethyl 2-{4-[(2S)-1-(methylcarbamoyl)pyrrolidin-2-yl]piperidin-1-yl}-6-azaspiro[3.4]octane-6-carboxylate]
- selectivity for the M4 receptor relative to the M1 receptor [1]: highly selective for the M4 receptor relative to the M1 receptor

SMILES: CCOC(=O)N1CCC2(CC(N3CCC(c4ccnn4C)CC3)C2)C1 (centres unmarked) [Example 1-21, ethyl 2-[4-(1-methyl-1H-pyrazol-5-yl)piperidin-1-yl]-6-azaspiro[3.4]octane-6-carboxylate]
- selectivity for the M4 receptor relative to the M1 receptor [1]: highly selective for the M4 receptor relative to the M1 receptor

SMILES: COC(=O)N1CCC2(CC(N3CCC(c4ncc(C)n4C)CC3)C2)C1 (centres unmarked) [Example 1-9, methyl 2-[4-(1,5-dimethyl-1H-imidazol-2-yl)piperidin-1-yl]-6-azaspiro[3.4]octane-6-carboxylate]
- selectivity for the M4 receptor relative to the M1 receptor [1]: highly selective for the M4 receptor relative to the M1 receptor

SMILES: COC(=O)N1CCC2(CC(N3CCC(c4nccn4C)CC3)C2)C1 (centres unmarked) [Example 1-6, methyl 2-[4-(1-methyl-1H-imidazol-2-yl)piperidin-1-yl]-6-azaspiro[3.4]octane-6-carboxylate]
- selectivity for the M4 receptor relative to the M1 receptor [1]: highly selective for the M4 receptor relative to the M1 receptor
